For one series, the system named is CB1R. Briefly: Changes in CB1 receptor expression and translocation. The format is cell-based. The conditions noted are these: CBGA 5 μM, 10 μM, dose-dependent; FIG. 11. The text has this: FIG. 11 Changes in receptor expression.
For another series, the system named is BCL2. Briefly: Western blot of phosphorylated BCL2 (anti-apoptotic marker). The format is cell-based, human. The note with it: CBGA 5 μM and 10 μM on Aβ1-42 (5 μM) treated cells, FIG. 10. On the procedure:
(§1) For Western blot analysis, control and the treated cells were harvested and lysed in cold lysis buffer (150 mM NaCl, 50 mM Tris-HCl, 1% Triton X-100, 0.1% SDS, 0.5% Sodium deoxycholate, and 1% protease-phosphatase inhibitor mixture). The supernatants were collected and protein concentrations were determined using Bio-Rad protein assay (Bio-Rad Laboratories). Whole cell lysates (10 μg) were subjected to 10% SDS-polyacrylamide electrophoresis and transferred to nitrocellulose membrane. The membranes were blocked with 5% skim milk in TBS-T (Tris-buffered saline with 0.05% Tween-20) for 1 h at RT and blotted overnight in the presence of monoclonal anti-mouse MAP2 (1:1000, Sigma, cat. no. M1406), Tau (1:1000, Invitrogen, cat. no. AHB0042), TUJI (1:5000, BioLegend, cat. no. MMS-435P), BAX (1:1000, Cell signaling, cat. no. 2772) and rabbit polyclonal total and phosphorylated BCL (1:1000, Cell signaling, antibodies #2827 and 2870). The membranes were washed and incubated for 1 h in RT with either horseradish peroxidase (HRP)-conjugated goat anti-mouse (1:2000) or goat anti-rabbit antibodies (1:2000) (Jackson Lab). The membranes were washed and developed using chemiluminescence detection kit (Millipore, Billerica, MA, USA) on Alpha Innotech FluorChem 8800. β-Actin or Vinculin was used as a loading control. […]
(In general: A western blot detects proteins with antibodies after separation by electrophoresis.)

The next series concerns Tuj1. Briefly: Western blot of Tuj1 neuritogenesis marker. The format is cell-based, human. The note with it: 5 μM and 10 μM, FIG. 13. On the procedure:
FIG. 13 CBGA upregulates the expression of Tuj1 neuritogenesis marker. Developmental changes in prominent intracellular marker of neurite growth, neuron-specific III β-tubulin (Tuj1) was determined using Western blot analysis. CBGA increased the expression of Tuj1 in differentiated SH-SY5Y cells. FIG. 13 also provides a histogram showing densitometric analysis of relative expression of Tuj1. β-Actin was used as a loading control. P<0.05 for CBGA 10 μM vs Control by One-Way ANOVA.
For Western blot analysis, control and the treated cells were harvested and lysed in cold lysis buffer (150 mM NaCl, 50 mM Tris-HCl, 1% Triton X-100, 0.1% SDS, 0.5% Sodium deoxycholate, and 1% protease-phosphatase inhibitor mixture). The supernatants were collected and protein concentrations were determined using Bio-Rad protein assay (Bio-Rad Laboratories). Whole cell lysates (10 μg) were subjected to 10% SDS-polyacrylamide electrophoresis and transferred to nitrocellulose membrane. […]

The test system of series [1] is differentiated SH-SY5Y human neuronal cells. Kind of series: MTT assay: cytotoxicity of the substance alone (primary screen, no added insult). It is filed as cell-based. The method, then: (§2) Cell Culture and Differentiation: The SH-SY5Y human neuronal cell line was derived from neuroblastoma established from a metastatic bone tumor (patient with neuroblastoma). The cells were maintained in DMEM:F12 culture medium supplemented with 10% FBS and 1% Antibiotic-Antimycotic penicillin/streptomycin (growth medium) at 37° C. in a humidified atmosphere of 5% CO2. To induce neuronal differentiation of SH-SY5Y cells, culture media was replaced by a growth medium containing Retinoic Acid (RA) for 4-5 days at 37° C. in a humidified atmosphere of 5% CO2.
(§3) Compounds and Dosing Formulations: Selected cannabinoids: CBD, CBDA, CBC, CBG, CBGA, CBN, CBND and Δ^9-THC were procured from Cayman Chemicals and TRC. Ethanol (100%) was used as the solvent to prepare 1 and 10 mM stock solutions. Treatment concentrations for CBGA were prepared at 0.5 μM, 1.5 μM, 5 μM, 10 μM, 15 μM, 20 μM. Treatment concentrations for CBD, CBDA, CBC, CBN, CBND and Δ^9-THC were prepared at 0.5, 1.5, 5 and for CBG at 0.5 μM, 1.5 μM, 5 μM, 10 μM, 15 μM. Treatments were prepared directly in the control medium (DMEM:F12+5% FBS+1% Antibiotic-Antimycotic) by using appropriate stock solutions.
(§4) Evaluation of Cytotoxicity and Neuroprotection: Evaluation of cannabinoids neuroprotection and cytotoxicity on differentiated SH-SY5Y human neuronal cells was carried out by MTT (3-(4,5-dimethylthiazol-2-yl)-2,5-diphenyltetrazolium bromide) assay. Initially, cannabinoid cytotoxicity and neuroprotection were evaluated in a primary screen assay without the presence of cytotoxicity inducing insult agents. […] The Retinoic Acid (RA) differentiated SH-SY5Y neuronal cells were seeded onto 96-well plates (10,000 cells/well) in DMEM:F12 complete medium. Cells were differentiated for 4-5 days in the presence of RA.
(§5) MTT Assay: For the MTT assay, differentiated SH-SY5Y neuronal cells were treated with cannabinoids at various concentrations for 72 hrs in the presence of STSR at 75 nM, 100 nM, 150 nM and 200 nM or for 24 hrs in the presence of […] at 5 μM, respectively and processed to determine cytotoxicity. Briefly, 5 mg/mL of methylthiazolyldiphenyl-tetrazolium bromide (Sigma-Aldrich) stock solution was prepared in PBS. Following treatment of SH-SY5Y neuronal cells with cannabinoids for 72 hrs, the cells were incubated with 20 μL of MTT stock solution in 200 μL DMEM for 2 hrs at 37° C. Following subsequent washes with PBS, 200 μL of isopropanol was added to each well. The resulting change in color from dissolving formazan salt was immediately quantified using a spectrophotometer (BMG Labtech) at a wavelength of 570 nm. […] The results are illustrated in FIGS. 1-7.
Background: Tetrazolium assays rely on reduction of a dye to a coloured formazan, in cell work by metabolically active cells.

In another series the test system is BAX. Kind of series: Western blot of BAX (pro-apoptotic marker). It is filed as cell-based, human. The conditions noted are these: CBGA alone or in the presence of Aβ1-42 (5 μM), FIG. 9. On the procedure:
as §1

Series [2] concerns differentiated SH-SY5Y human neuronal cells. Kind of series: MTT assay: neuroprotection from Staurosporin (STSR) induced cytotoxicity. It is filed as cell-based. The method, then:
as §2, §3, §4, §5

The test system of series [3] is differentiated SH-SY5Y cells. Kind of series: Immunocytochemistry of TuJ1 and neuronal morphology. It is filed as cell-based, human. The note with it: 5 μM and 10 μM, FIG. 14. On the procedure: FIG. 14 Morphological characterization of CBGA, THC and CBN mediated changes in differentiated SH-SY5Y cells. SH-SY5Y cells were differentiated with RA (10 μM) for 5 days as indicated. (A) Representative confocal photomicrographs showing changes in the cellular distribution of Tuj1 in RA induced differentiated SH-SY5Y cells following treatment with CBGA, THC and CBN. (B) Histogram showing the effect of CBGA, CBN, THC on neurite length.

For `CCCCCc1cc(O)c(C/C=C(\C)CCC=C(C)C)c(O)c1C(=O)O` [CBGA, 3-[(2E)-3,7-dimethylocta-2,6-dienyl]-2,4-dihydroxy-6-pentylbenzoic acid], the “CB1R expression and translocation” value in the series with CB1R is given as “promotes translocation of CB1R to the Golgi apparatus”. Moreover, the BCL2 expression entry in the series with BCL2 is “abrogates the downregulation of BCL2”. Also, the “TuJ1 expression, Western blot” value in the series with Tuj1 is on record as “promotes upregulation of TuJ1 expression”. In series [1] (1.5 μM, 5 μM and 15 μM, FIG. 1), the “effect on survival in primary screen” value is reported as “pro-survival neuroprotective effect”. Besides, the “Cell Death (%) vs Vehicle Control” value in series [1] (15 μM, pre-screen, FIG. 1) is reported as “pro-survival”. Besides, in series [1] (CBGA alone up to 20 μM, FIG. 4), the “cell death under basal conditions” value is listed as “did not result in cell death” and the “cell proliferation under basal conditions” value is given as “induced dose-dependent cell proliferation”. Moreover, in the series with BAX, the BAX expression entry was “attenuates BAX expression to the control levels”. For the same molecule, the “neuroprotection against STSR insult-induced cytotoxicity” value in series [2] (0.5 μM to 20 μM with STSR 75 nM, FIG. 5) is reported as “significant dose-dependent neuroprotection”. In series [2] (0.5 μM, 1.5 μM and 5 μM with STSR 75 nM, 72 hrs, FIG. 3), the “neuroprotection against STSR-induced cytotoxicity” value is given as “significant neuroprotection”. The “Cell Death (%) vs STSR at 75 nM, significance” value in series [2] (5 μM with STSR 75 nM, compared to STSR-alone, One-Way ANOVA, FIG. 3) is “Statistically significant neuroprotection”. Further, the “protection from STSR induced cytotoxicity” value in series [2] (5 μM, 10 μM and 15 μM with STSR 75 nM, FIG. 6) was “protected”. The “Cell Death (%) vs STSR, significance” value in series [2] (10 μM and 15 μM with STSR 75 nM, FIG. 6) is listed as “Statistically significant neuroprotection”. Further, the “TuJ1 expression, immunocytochemistry” value in series [3] is “promotes upregulation of TuJ1 expression”.

The values above are taken from US20230381205A1, “COMPOSITIONS AND METHODS FOR TREATING NEURONAL DISORDERS WITH CANNABINOIDS” (INMED PHARMACEUTICALS INC., priority 2020, published 2023).
